One may read the IC50 as the midpoint of a concentration-inhibition curve.

In the test the target is Recombinant human factor D (Homo sapiens (Human), UniProt P00746). The test can be described thus: Human Complement Factor D Assay: Method 1. It counts as biochemical. The conditions noted are these: Factor D inhibition, Method 1: 10 nM factor D, 1 hour incubation with compound at room temperature, substrate Z-Lys-thiobenzyl, fluorescence readout; read-out: IC50.
Recombinant human factor D, sequence (P00746 26-253): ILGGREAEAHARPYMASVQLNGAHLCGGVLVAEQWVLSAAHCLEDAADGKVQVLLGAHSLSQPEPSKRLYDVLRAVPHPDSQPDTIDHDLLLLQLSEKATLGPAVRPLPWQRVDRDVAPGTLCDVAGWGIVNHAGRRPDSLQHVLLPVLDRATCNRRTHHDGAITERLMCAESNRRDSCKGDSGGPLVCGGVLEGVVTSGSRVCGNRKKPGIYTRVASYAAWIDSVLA
Procedure: Recombinant human factor D (expressed in E. coli and purified using standard methods) at 10 nM concentration is incubated with test compound at various concentrations for 1 hour at room temperature in 0.1 M Hepes buffer, pH 7.5, containing 1 mM MgCl2, 1 M NaCl and 0.05% CHAPS. […] IC50 values are calculated from percentage of inhibition of complement factor D-activity as a function of test compound concentration.
In the case of `CC(=O)c1nn(CC(=O)N2[C@@H]3C[C@@H]3C[C@H]2C(=O)N[C@@H]2C[C@H]2c2ccccc2)c2cnccc12` [Example 5, (1R,3S,5R)-2-[2-(3-Acetyl-pyrazolo[3,4-c]pyridin-1-yl)-acetyl]-2-aza-bicyclo[3.1.0] hexane-3-carboxylic acid ((1R,2S)-2-phenyl-cyclopropyl)-amide], the IC50 worked out at 106 nM. For the compound `CC(=O)c1nn(CC(=O)N2[C@@H]3C[C@@H]3C[C@H]2C(=O)N[C@@H]2C[C@H]2c2ccccc2)c2ncccc12` [Example 8, (1R,3S,5R)-2-[2-(3-Acetyl-pyrazolo[3,4-b]pyridin-1-yl)-acetyl]-2-aza-bicyclo[3.1.0]hexane-3-carboxylic acid ((1R,2S)-2-phenyl-yclopropyl)-amide], the 50% inhibitory concentration (IC50) turned out to be 123 nM. Turning to `NC(=O)c1nn(CC(=O)N2[C@@H]3C[C@@H]3C[C@H]2C(=O)N[C@@H]2C[C@H]2c2ccccc2)c2cnccc12` [Example 9, 1-{2-Oxo-2-[(1R,3S,5R)-3-((1R,2S)-2-phenyl-cyclopropylcarbamoyl)-2-aza-bicyclo[3.1.0]hex-2-yl]-ethyl}-1H-pyrazolo[3,4-c]pyridine-3-carboxylic acid amide], the IC50 was determined as 65 nM. `CO[C@H]1[C@@H](C(=O)N[C@@H]2C[C@H]2c2ccccc2)N(C(=O)Cn2nc(C(C)=O)c3ccccc32)C[C@@H]1F` [Example 10, (2S,3S,4S)-1-[2-(3-Acetyl-indazol-1-yl)-acetyl]-4-fluoro-3-methoxy-pyrrolidine-2-carboxylic acid ((1R,2S)-2-phenyl-cyclopropyl)-amide]: the IC50 came out at 40 nM. Turning to `NC(=O)c1nn(CC(=O)N2[C@@H]3C[C@@H]3C[C@H]2C(=O)N[C@@H]2C[C@H]2c2ccccc2)c2ccccc12` [Example 12, 1-{2-Oxo-2-[(1R,3S,5R)-3-((1R,2S)-2-phenyl-cyclopropylcarbamoyl)-2-aza-bicyclo[3.1.0]hex-2-yl]-ethyl}-1H-indazole-3-carboxylic acid amide], the concentration for half-maximal inhibition (IC50) worked out at 60 nM.

Turning to `NC(=O)c1nn(CC(=O)N2[C@@H]3C[C@@H]3C[C@H]2C(=O)N[C@@H]2C[C@H]2c2ccccc2)c2ncccc12` [Example 13, 1-{2-Oxo-2-[(1R,3S,5R)-3-((1R,2S)-2-phenyl-cyclopropylcarbamoyl)-2-aza-bicyclo[3.1.0]hex-2-yl]-ethyl}-1H-pyrazolo[3,4-b]pyridine-3-carboxylic acid amide], the IC50 turned out to be 172 nM.

With `NC(=O)c1nn(CC(=O)N2[C@@H]3C[C@@H]3C[C@H]2C(=O)N[C@@H]2C[C@H]2c2ccccc2)c2ccncc12` [Example 14, 1-{2-Oxo-2-[(1R,3S,5R)-3-((1R,2S)-2-phenyl-cyclopropylcarbamoyl)-2-aza-bicyclo[3.1.0]hex-2-yl]-ethyl}-1H-pyrazolo[4,3-c]pyridine-3-carboxylic acid amide], the 50% inhibitory concentration (IC50) worked out at 118 nM. Turning to `Cc1cc2c(C(N)=O)nn(CC(=O)N3[C@@H]4C[C@@H]4C[C@H]3C(=O)N[C@@H]3C[C@H]3c3ccccc3)c2cn1` [Example 15, 5-Methyl-1-{2-oxo-2-[(1R,3S,5R)-3-((1R,2S)-2-phenyl-cyclopropylcarbamoyl)-2-aza-bicyclo[3.1.0]hex-2-yl]-ethyl}-1H-pyrazolo[3,4-]pyridine-3-carboxylic acid amide], the concentration for half-maximal inhibition (IC50) was determined as 115 nM. On to `NC(=O)c1nn(CC(=O)N2C[C@H](F)C[C@H]2C(=O)N[C@@H]2C[C@H]2c2ccccc2)c2ccncc12` [Example 16, 1-{2-[(2S,4R)-4-Fluoro-2-((1R,2S)-2-phenyl-cyclopropylcarbamoyl)-pyrrolidin-1-yl]-2-oxo-ethyl}-1H-pyrazolo[4,3-c]pyridine-3-carboxylic acid amide], for which the half-inhibitory concentration (IC50) stood at 1240 nM. With `NC(=O)c1nn(CC(=O)N2C[C@H](F)C[C@H]2C(=O)N[C@@H]2C[C@H]2c2ccccc2)c2ncccc12` [Example 17, 1-{2-[(2S,4R)-4-Fluoro-2-((1R,2S)-2-phenyl-cyclopropylcarbamoyl)-pyrrolidin-1-yl]-2-oxo-ethyl}-1H-pyrazolo[3,4-b]pyridine-3-carboxylic acid amide] the figure was 117 nM. With `NC(=O)c1nn(CC(=O)N2C[C@H](F)C[C@H]2C(=O)N[C@@H]2C[C@H]2c2ccccc2)c2ccccc12` [Example 18, 1-{2-[(2S,4R)-4-Fluoro-2-((1R,2S)-2-phenyl-cyclopropylcarbamoyl)-pyrrolidin-1-yl]-2-oxo-ethyl}-1H-indazole-3-carboxylic acid amide], the IC50 came to 44 nM. As for `CCc1cc2c(C(N)=O)nn(CC(=O)N3[C@@H]4C[C@@H]4C[C@H]3C(=O)N[C@@H]3C[C@H]3c3ccccc3)c2cn1` [Example 19, 5-Ethyl-1-{2-oxo-2-[(1R,3S,5R)-3-((1R,2S)-2-phenyl-cyclopropylcarbamoyl)-2-aza-bicyclo[3.1.0]hex-2-yl]-ethyl}-1H-pyrazolo[3,4-c]pyridine-3-carboxylic acid amide], the IC50 is 31 nM. In the case of `NC(=O)c1nn(CC(=O)N2[C@@H]3C[C@@H]3C[C@H]2C(=O)N[C@H]2C[C@@H]2c2ccccc2Cl)c2cnccc12` [Example 21, 1-(2-{(1R,3S,5R)-3-[(1S,2R)-2-(2-Chloro-phenyl)-cyclopropylcarbamoyl]-2-aza-bicyclo[3.1.0]hex-2-yl}-2-oxo-ethyl)-1H-pyrazolo[3,4-c]pyridine-3-carboxylic acid amide], the concentration for half-maximal inhibition (IC50) came out at 1400 nM.

For the compound `CC(=O)c1nn(CC(=O)N2[C@@H]3C[C@@H]3C[C@H]2C(=O)N[C@]2(C)C[C@H]2c2ccccc2)c2cnccc12` [Example 22, (1R,3S,5R)-2-[2-(3-Acetyl-pyrazolo[3,4-c]pyridin-1-yl)-acetyl]-2-aza-bicyclo[3.1.0] hexane-3-carboxylic acid ((1R,2S)-1-methyl-2-phenyl-cyclopropyl)-amide], the IC50 came out at 870 nM.

For the compound `CC(=O)c1nn(CC(=O)N2[C@@H]3C[C@@H]3C[C@H]2C(=O)N[C@@]2(C)C[C@@H]2c2ccccc2)c2cnccc12` [Example 23, (1R,3S,5R)-2-[2-(3-Acetyl-pyrazolo[3,4-c]pyridin-1-yl)-acetyl]-2-aza-bicyclo[3.1.0] hexane-3-carboxylic acid ((1S,2R)-1-methyl-2-phenyl-cyclopropyl)-amide], the IC50 stood at 13200 nM. As to `NC(=O)c1nn(CC(=O)N2[C@@H]3C[C@@H]3C[C@H]2C(=O)N[C@@H]2C[C@@]2(F)c2ccccc2)c2cc(F)c(F)cc12` [Example 25, 5,6-Difluoro-1-{2-[(1R,3S,5R)-3-((1R,2R)-2-fluoro-2-phenyl-cyclopropylcarbamoyl)-2-aza-bicyclo[3.1.0]hex-2-yl]-2-oxo-ethyl}-1H-indazole-3-carboxylic acid amide], the 50% inhibitory concentration (IC50) was determined as 110 nM. With `NC(=O)c1nn(CC(=O)N2[C@@H]3C[C@@H]3C[C@H]2C(=O)N[C@@H]2C[C@@]2(F)c2ccccc2)c2ccc(F)cc12` [Example 26, 5-Fluoro-1-{2-[(1R,3S,5R)-3-((1R,2R)-2-fluoro-2-phenyl-cyclopropylcarbamoyl)-2-aza-bicyclo[3.1.0]hex-2-yl]-2-oxo-ethyl}-1H-indazole-3-carboxylic acid amide], the 50% inhibitory concentration (IC50) is 60 nM. Take `CC(=O)c1nn(CC(=O)N2[C@H](C(=O)N[C@@H]3C[C@H]3c3ccccc3)C[C@@]3(CO)C[C@@H]23)c2ncccc12` [Example 28, (1R,3S,5S)-2-[2-(3-Acetyl-pyrazolo[3,4-b]pyridin-1-yl)-acetyl]-5-hydroxymethyl-2-aza-bicyclo[3.1.0]hexane-3-carboxylic acid((1R,2S)-2-phenyl-cyclopropyl)-amide]: the IC50 came out at 172 nM. Take `CC(=O)c1nn(CC(=O)N2[C@H](C(=O)N[C@@H]3C[C@H]3c3ccccc3)C[C@@]3(CO)C[C@@H]23)c2cnccc12` [Example 29, (1R,3S,5S)-2-[2-(3-Acetyl-pyrazolo[3,4-c]pyridin-1-yl)-acetyl]-5-hydroxymethyl-2-aza-bicyclo[3.1.0]hexane-3-carboxylic acid((1R,2S)-2-phenyl-cyclopropyl)-amide]: the concentration for half-maximal inhibition (IC50) is 119 nM. `NC(=O)c1nn(CC(=O)N2[C@H](C(=O)N[C@@H]3C[C@H]3c3ccccc3Cl)C[C@@]3(CO)C[C@@H]23)c2ccccc12` [Example 30, 1-(2-{(1R,3S,5S)-3-[(1R,2S)-2-(2-Chloro-phenyl)-cyclopropylcarbamoyl]-5-hydroxymethyl-2-aza-bicyclo[3.1.0]hex-2-yl}-2-oxo-ethyl)-1H-indazole-3-carboxylic acid amide]: the IC50 turned out to be 22 nM. With `CC(=O)c1nn(CC(=O)N2[C@H](C(=O)N[C@@H]3C[C@H]3c3ccccc3Cl)C[C@@]3(CO)C[C@@H]23)c2cnccc12` [Example 31, (1R,3S,5S)-2-[2-(3-Acetyl-pyrazolo[3,4-c]pyridin-1-yl)-acetyl]-5-hydroxymethyl-2-aza-bicyclo[3.1.0]hexane-3-carboxylic acid[(1R,2S)-2-(2-chloro-phenyl)-cyclopropyl]-amide] the figure was 37 nM; with `CC(=O)c1nn(CC(=O)N2[C@@H]3C[C@@H]3C[C@H]2C(=O)NC2CC2c2ccc(OC(F)F)cc2)c2cnccc12` (stereo partly drawn) [Example 32, (1R,3S,5R)-2-[2-(3-Acetyl-pyrazolo[3,4-c]pyridin-1-yl)-acetyl]-2-aza-bicyclo[3.1.0]hexane-3-carboxylic acid[2-(4-difluoromethoxy-phenyl)-cyclopropyl]-amide], 326 nM; with `CC(=O)c1nn(CC(=O)N2[C@@H]3C[C@@H]3C[C@H]2C(=O)NC2CC2c2cccc(C(F)(F)F)c2)c2cnccc12` (stereo partly drawn) [Example 33, (1R,3S,5R)-2-[2-(3-Acetyl-pyrazolo[3,4-c]pyridin-1-yl)-acetyl]-2-aza-bicyclo[3.1.0] hexane-3-carboxylic acid [2-(3-trifluoromethyl-phenyl)-cyclopropyl]-amide], 550 nM. For the compound `CC(=O)c1nn(CC(=O)N2[C@@H]3C[C@@H]3C[C@H]2C(=O)NC2CC2c2ccc(C)c(C)c2)c2cnccc12` (stereo partly drawn) [Example 34, (1R,3S,5R)-2-[2-(3-Acetyl-pyrazolo[3,4-c]pyridin-1-yl)-acetyl]-2-aza-bicyclo[3.1.0] hexane-3-carboxylic acid [2-(3,4-dimethyl-phenyl)-cyclopropyl]-amide], the half-maximal inhibitory concentration (IC50) worked out at 112 nM.

Values taken from patent publication US9815819B2, “Complement pathway modulators and uses thereof” (priority 2012, dated 2017).
